Details of series [1]: method as in PMID 25682874. The following applies: cited from earlier work.
The nature of a further series: in vitro. Conditions: mouse, plasma. The class given is in vitro ADME. The text has this: Figure 1S. Plasma ex vivo stability profile of the ML and C23 inhibitor determined by Ultra Performance Liquid Chromatography (UPLC).
Series [2] deals with DU145 cells. In words: LDH release acute cytotoxicity assay. The class given is cell-based. Conditions: for LDH release DU145: 4 h incubation, selected concentrations. The procedure:
(§1) The inhibitory constant (Ki) was calculated from the IC50 values using the equation of Cheng and Prusoff. Data are the mean ± SD of three independent experiments. The concentration of peptides that inhibited cell growth by 50% (IC50) was determined by MTT cell survival assays in DU145 and LNCaP cell lines. Data represent the mean ± SEM of three independent experiments. Acute cytotoxicity of the compounds at the selected concentrations was measured by lactate dehydrogenase (LDH) assay after 4 h of incubation with DU145 cells. […] Previously published compound: [a] ref.[12]. ML inhibitor was used as control and was re-assayed in presented experiments.
(§2) DU145 and LNCaP cells were maintained at low passages (below 30) and cultured in RPMI 1640 (Wisent Bioproducts, QC) with 5 and 10% fetal bovine serum, respectively. For MTT proliferation assays 3500 LNCaP (on poly-L-lysine coated wells) or 1500 DU145 cells were seeded in 96-well plates, and after 24 h, the cells were treated with various concentrations of inhibitors (from 300 to 1 μM). Next, the cells were incubated for 72 h with peptides prior to addition of MTT reagent (Sigma–Aldrich, Canada) at a final concentration of 1 mg/mL. Formazan salt was solubilized with 50 μL DMSO and the metabolic activity was normalized relatively to vehicle-treated cells (sterile bi-distilled water). IC50 values were determined using Prism 5.0 (GraphPad Software, USA), as previously described. For LDH assay, the LDH Cytotoxicity Detection Kit (Promega, USA) was used to quantify the release of lactate dehydrogenase following membrane disruption. As described in our previous work[15], DU145 cells were seeded at a density of 3000 cells/well and allowed to incubate for 24 h. Then, the media was subsequently replaced and cells were incubated with compounds at the selected concentration. Cells treated with 1% SDS were used as a control for maximal LDH release and further relative quantification.
Background: LDH in the medium is a marker of cell lysis.

The target of a further series is T1, recombinant human PACE4 (Homo sapiens, UniProt P29122).
T1 construct: made in house
T1 sequence (P29122 150-969): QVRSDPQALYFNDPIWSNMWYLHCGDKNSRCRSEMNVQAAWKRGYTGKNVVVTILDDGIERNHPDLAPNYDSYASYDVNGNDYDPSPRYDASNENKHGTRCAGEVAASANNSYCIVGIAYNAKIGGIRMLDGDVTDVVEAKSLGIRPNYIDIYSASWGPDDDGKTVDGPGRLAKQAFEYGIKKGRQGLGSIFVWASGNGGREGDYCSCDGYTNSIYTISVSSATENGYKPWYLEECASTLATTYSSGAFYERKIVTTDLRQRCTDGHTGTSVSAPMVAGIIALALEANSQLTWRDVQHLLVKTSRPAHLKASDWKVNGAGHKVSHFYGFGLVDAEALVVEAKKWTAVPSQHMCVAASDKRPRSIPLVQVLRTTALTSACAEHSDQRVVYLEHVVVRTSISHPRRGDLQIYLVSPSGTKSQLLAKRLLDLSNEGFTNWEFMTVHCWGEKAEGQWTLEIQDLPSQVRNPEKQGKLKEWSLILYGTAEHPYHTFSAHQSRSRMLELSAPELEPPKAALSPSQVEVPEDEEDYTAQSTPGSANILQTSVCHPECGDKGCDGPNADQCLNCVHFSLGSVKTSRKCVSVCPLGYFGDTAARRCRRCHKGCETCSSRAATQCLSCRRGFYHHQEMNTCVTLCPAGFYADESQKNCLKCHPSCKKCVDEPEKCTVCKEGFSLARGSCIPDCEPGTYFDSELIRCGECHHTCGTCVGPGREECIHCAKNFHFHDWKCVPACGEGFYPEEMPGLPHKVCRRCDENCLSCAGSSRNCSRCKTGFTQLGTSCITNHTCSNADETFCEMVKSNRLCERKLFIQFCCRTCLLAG
Kind of series: Enzyme kinetic inhibition of recombinant hPACE4. The class given is biochemical. The following applies: calculated from IC50 by Cheng and Prusoff, mean ± SD of three experiments. The procedure:
as §1
Enzyme kinetic measurements were performed with recombinant hPACE4 as described previously. Enzyme and substrate concentrations used in the present study are presented in Supplementary Table S2.

For series [3], the system named is DU145 cells. Conditions: 72 h. On the procedure:
as §1, §2

The subject of another series is LNCaP cells. The following applies: 72 h. On the procedure:
as §1, §2

In series [4] the target is T2, mouse serum albumin (MSA) (Mus musculus, UniProt P07724).
T2 construct: purchased Equitech-Bio; Inc., USA
T2 sequence (P07724 25-608): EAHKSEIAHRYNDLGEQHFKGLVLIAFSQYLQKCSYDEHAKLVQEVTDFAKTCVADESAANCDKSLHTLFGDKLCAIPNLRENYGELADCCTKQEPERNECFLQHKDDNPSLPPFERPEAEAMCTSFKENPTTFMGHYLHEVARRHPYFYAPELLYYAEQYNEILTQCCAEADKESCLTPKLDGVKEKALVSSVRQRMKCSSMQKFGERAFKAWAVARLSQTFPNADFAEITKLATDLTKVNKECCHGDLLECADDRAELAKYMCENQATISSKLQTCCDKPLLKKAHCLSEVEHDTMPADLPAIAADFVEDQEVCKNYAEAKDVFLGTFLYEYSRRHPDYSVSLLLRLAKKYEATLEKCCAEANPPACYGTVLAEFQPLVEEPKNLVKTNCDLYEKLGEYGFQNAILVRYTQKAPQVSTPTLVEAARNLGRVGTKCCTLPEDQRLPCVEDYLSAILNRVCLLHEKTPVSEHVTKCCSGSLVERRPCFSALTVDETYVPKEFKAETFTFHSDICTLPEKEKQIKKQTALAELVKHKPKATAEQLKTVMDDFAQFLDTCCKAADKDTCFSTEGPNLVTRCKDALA
Kind of series: MSA conjugation assay. Type of series: binding. The following applies: PBS pH 7.4, 37 °C; RP-HPLC and MALDI-TOF. An excerpt:
RP-HPLC and MALDI-TOF analysis were used to confirm completion of the reaction.

The target in another series is T3, human PSA (hPSA) (Homo sapiens, UniProt P07288).
T3 construct: enzymatically active hPSA extracted from seminal fluid (Millipore, USA); purchased Millipore, USA; host or cells: human seminal fluid
T3 sequence (P07288 25-261): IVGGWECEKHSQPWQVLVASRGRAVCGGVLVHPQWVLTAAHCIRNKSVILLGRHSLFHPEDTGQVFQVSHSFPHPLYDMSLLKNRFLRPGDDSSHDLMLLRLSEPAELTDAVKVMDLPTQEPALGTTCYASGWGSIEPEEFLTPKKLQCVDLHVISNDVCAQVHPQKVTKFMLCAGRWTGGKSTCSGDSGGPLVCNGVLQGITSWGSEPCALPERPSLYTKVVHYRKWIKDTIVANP
In words: hPSA cleavage of prodrugs. Type of series: biochemical. Conditions: extended incubation time up to 24 h; RP-HPLC. On the procedure: To determine PSA cleavage efficiency, peptide (125 µM final concentration; approximately 20 µg) were incubated with a final concentration of 20 µg/mL of enzymatically active hPSA extracted from seminal fluid (Millipore, USA) in 50 mM Tris buffer pH 7.4. Samples were analyzed by RP-HPLC (using 35 µL of the reaction solution) by comparing the resulting cleavage product over a standard curve generated using a synthetic cleaved peptide (peptides 1–4). The number of nmol of a cleaved peptide produced over time was then used to calculate the specific activity in pmol product/min/100 pmol PSA to compare the different substrate peptide between each other.

Where [5] appears, read: 4 h incubation with DU145 cells at 100 μM.

Where a SMILES comes first, the peptide text is derived from it.

What is called half-life is the time in which the quantity being followed falls by half. Low readings indicate rapid decline, high ones slow decline. The Ki is the equilibrium dissociation constant of an inhibitor or competing ligand from its target. The IC50 is the concentration that gives 50% inhibition. Low readings indicate greater potency in that assay, high ones weaker potency in that assay.

With `CC(=O)N[C@H](CC(C)C)C(=O)N[C@@H](CC(C)C)C(=O)N[C@@H](CC(C)C)C(=O)N[C@@H](CC(C)C)C(=O)N[C@@H](CCCNC(=N)N)C(=O)N[C@H](C(=O)N[C@@H](CCCCN)C(=O)NCc1ccc(C(=N)N)cc1)C(C)C` [C23, Ac-[DLeu]LLLRVK-amidinobenzylamide] (HELM PEPTIDE1{[ac].[dL].L.L.L.R.V.K.[N=C(N)c1ccc(CN[*:1])cc1]}$$$$V2.0), in series [1], the “in vivo half-life (t1/2)” value is reported as 9 ± 3 min. Moreover, in series [1] (radiolabeled version), the “time post-injection after which rapidly eliminated” value is listed as 20 min. In the series “in vitro”, the half-life was 104 ± 3.6 min.
`CC(C)C[C@H](NC(=O)Cc1ccc(NC(=O)[C@H](CC(C)C)NC(=O)[C@@H](N)CO)cc1)C(=O)N[C@@H](CC(C)C)C(=O)N[C@@H](CC(C)C)C(=O)N[C@@H](CC(C)C)C(=O)N[C@@H](CCCNC(=N)N)C(=O)N[C@H](C(=O)N[C@@H](CCCCN)C(=O)N[C@@H](CCCNC(=N)N)C(N)=O)C(C)C` [Peptide 2] (HELM PEPTIDE1{S.L.[O=C(Cc1ccc(N[*:1])cc1)[*:2]].L.L.L.L.R.V.K.R.[am]}$$$$V2.0): the “LDH release relative to the untreated cells” value in the series with DU145 cells [2] (4 h incubation with DU145 cells at the IC50 concentration) is less than 5%. The “LDH release DU145” value in the series with DU145 cells [2] is reported as less than 5%. The inhibition constant (Ki) on recombinant human PACE4 was 68 ± 10 nM. Also, the results for the IC50 with DU145 cells [3] and in the series with LNCaP cells were 19 ± 7 µM and 50 ± 10 µM, respectively.
For `CC(C)C[C@H](NC(=O)CCCNC(=O)[C@H](CC(C)C)NC(=O)[C@@H](N)CO)C(=O)N[C@@H](CC(C)C)C(=O)N[C@@H](CC(C)C)C(=O)N[C@@H](CC(C)C)C(=O)N[C@@H](CCCNC(=N)N)C(=O)N[C@H](C(=O)N[C@@H](CCCCN)C(=O)N[C@@H](CCCNC(=N)N)C(N)=O)C(C)C` [Peptide 3] (HELM PEPTIDE1{S.L.[O=C(CCCN[*:1])[*:2]].L.L.L.L.R.V.K.R.[am]}$$$$V2.0), the “LDH release relative to the untreated cells” value in the series with DU145 cells [2] (setting [5]) is reported as less than 5%. Moreover, the “LDH release DU145” value in the series with DU145 cells [2] is on record as less than 5%. At recombinant human PACE4, the Ki was 56 ± 4 nM.
Turning to `CC(C)C[C@H](NC(=O)COCCOCCNC(=O)[C@H](CC(C)C)NC(=O)[C@@H](N)CO)C(=O)N[C@@H](CC(C)C)C(=O)N[C@@H](CC(C)C)C(=O)N[C@@H](CC(C)C)C(=O)N[C@@H](CCCNC(=N)N)C(=O)N[C@H](C(=O)N[C@@H](CCCCN)C(=O)N[C@@H](CCCNC(=N)N)C(N)=O)C(C)C` [Peptide 4] (HELM PEPTIDE1{S.L.[O=C(COCCOCCN[*:1])[*:2]].L.L.L.L.R.V.K.R.[am]}$$$$V2.0), the “LDH release relative to the untreated cells” value with DU145 cells [2] (setting [5]) is on record as less than 5%. In addition, the “LDH release DU145” value in the series on DU145 cells [2] is on record as less than 5%. Further, the Ki on recombinant human PACE4 is 62 ± 3 nM.
For the molecule “Ac-LLLLRVKR-NH2 [ML, reference compound]”, the “LDH release DU145” value in the series on DU145 cells [2] is less than 5%. The molecule also showed a half-life in “in vitro” of 7.8 ± 2.3 min. For the same molecule, the figures for the IC50 with DU145 cells [3] and in the series on LNCaP cells were 90 ± 2 µM and 130 ± 10 µM, respectively.
For the molecule “EMC-RSSYYSLLLLLRVKR-NH2 ({EMC}-RSSYYSLLLLLRVKR-NH2) [Ligand 1]”, the “time to full conjugation to MSA” value in series [4] was determined as 1 h.
Turning to “EMC-RSSYYSL[4-Apaa]LLLLRVKR-NH2 [Ligand 2]”, the “time to full conjugation to MSA” value in series [4] worked out at 1 h.
With MSA-EMC-RSSYYSLLLLLRVKR-NH2 [prodrug 1], the “release of the ML derivative by hPSA” value at human PSA (hPSA) is recorded as “no release product was detected”.
